For 15 compounds, IC50 results are on record in PubChem BioAssay AID488797 (The Scripps Research Institute Molecular Screening Center, 2010).

The source made the active and inactive calls.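 The calls were made as follows: active = half-inhibiting concentration IC50 at or below 10 µM; inactive = IC50 above 10 µM.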

The test deals with Female germline-specific tumor suppressor gld-1 (Caenorhabditis elegans) (UniProt Q17339). Put plainly: C. elegans gld-1 RNA interaction inhibition curves – biochemical, fluorescence polarization, IC50, powder samples, late-stage follow-up (AID 488797). As to conditions: GLD-1 / FL-TGE RNA binding. Background: Fluorescence polarisation rises when a labelled molecule tumbles more slowly, as on binding a larger partner.
Sequence of Female germline-specific tumor suppressor gld-1 (Caenorhabditis elegans) (Q17339 whole entry, looked up): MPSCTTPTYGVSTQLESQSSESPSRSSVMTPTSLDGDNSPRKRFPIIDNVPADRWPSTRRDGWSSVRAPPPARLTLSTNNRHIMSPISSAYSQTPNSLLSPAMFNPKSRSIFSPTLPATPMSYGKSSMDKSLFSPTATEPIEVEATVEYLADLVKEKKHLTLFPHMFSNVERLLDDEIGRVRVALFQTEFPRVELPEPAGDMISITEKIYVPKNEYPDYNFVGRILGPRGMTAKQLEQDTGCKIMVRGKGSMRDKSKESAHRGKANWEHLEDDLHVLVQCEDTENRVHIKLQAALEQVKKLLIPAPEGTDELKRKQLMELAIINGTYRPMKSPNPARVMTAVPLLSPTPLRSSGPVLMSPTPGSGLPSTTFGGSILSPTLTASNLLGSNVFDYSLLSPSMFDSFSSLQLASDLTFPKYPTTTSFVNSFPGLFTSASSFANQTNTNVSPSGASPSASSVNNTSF
By IC50 is commonly meant the concentration that gives 50% inhibition. For the compound `CC1=CC(=O)c2c(O)ccc(O)c2C1=O`, the IC50 is 5.67 µM.

Regarding `Nc1c(O)ccc2c1C(=O)c1ccccc1C2=O`, the half-inhibitory concentration (IC50) was 4.17 µM.

As to `O=C(CN1C(=O)NC2(CCCCC2)C1=O)Oc1ccc2c(C(F)(F)F)cc(=O)oc2c1`, the IC50 was 5.62 µM.

As for `Nc1ccc(O)c2c1C(=O)c1ccccc1C2=O`, the IC50 is 3 µM.

As to `O=c1[nH]c(=O)c2nc3ccccc3nc2[nH]1`, the IC50 entry is “inactive”.

`COc1ccc(C=Nc2c(-c3ccco3)nc3ccccn23)cc1OC`: the IC50 is > 59.6 µM (inactive).

Regarding `O=C1C2=C(SCCS2)C(=O)N1CCCO`, the IC50 is 4.73 µM.

Turning to `CCN(CC)S(=O)(=O)c1ccc(N2CCCC2)c(NS(=O)(=O)c2ccc(F)cc2)c1`, the IC50 entry was “inactive”.

As for `CCCCn1c(=O)[nH]c2nc3cc(NC(C)=O)ccc3nc2c1=O`, the IC50 was 2.62 µM.

Turning to `O=c1[nH]c2cc3ccccc3cc2nc1C(F)(F)F`, the IC50 was 2.5 µM.

As for `COc1ccc(/C=C(\CC(=O)O)c2nc3ccccc3s2)cc1O`, the IC50 was 2.17 µM.

Take `CCOC(=O)c1c(C)oc2c1cc(NS(=O)(=O)c1ccc(C)cc1)c1ccccc12`: the IC50 was > 59.6 µM (inactive).

With `Nc1ccc2nonc2c1[N+](=O)[O-]`, the IC50 was > 59.6 µM (inactive).

As to `Cc1ccc(S(=O)(=O)Nc2cc3c(C(=O)Nc4ccccc4)c(C)oc3c3ccccc23)cc1`, the IC50 is 1.66 µM.

Consider `Cc1ccc(S(=O)(=O)Nc2cc3c(C(=O)Nc4ccccc4)c(C)oc3c3ccccc23)c(C)c1`, for which the IC50 was 1.14 µM.
